Measured values from patent publication US8178688B2, “Benzamidine derivatives, process for the preparation thereof and pharmaceutical composition comprising the same” (Dong Wha Pharmaceutical Co., Ltd., priority 2004, dated 2012).
Like-named read-outs stand apart in the source and are kept apart here.

Tested on: osteoclast differentiation
Test: Inhibitory effects on osteoclast differentiation (co-culture of bone marrow cells with osteoblast, TRAP staining)
Assay type: cell-based, mice
Settings: Mus musculus, Osteoclast, 168 h, read-out: % inhibitory activity on osteoclastogenesis
Protocol: The effect of benzamidine derivatives of the present invention on osteoclast proliferation and differentiation process was evaluated via co-culture with osteoblast.
Tibia and Femora were aseptically ectomized from male ddY mice of 6-8 weeks to harvest bone marrow cells by using a syringe (21G, Korea Green Cross).
The bone marrow cells were suspended in 5 mL α-MEM medium (Gibco BRL Co.) containing sodium bicarbonate (2.0 g/L), streptomycin (100 mg/L) and penicillin ([…]). The harvested cells were centrifuged at 600×g for 5 mins to collect the whole quantity. To remove the red blood cells within bone marrow cells, 3 mL of Tris HCl (0.83% NH4Cl, pH7.5) was added and well mixed. After centrifuging above cells, the numbers of bone marrow cells were counted and then, the bone marrow cells were immediately used for co-culture system with osteoblast.
The calvaria were aseptically ectomized from neonate ICR mice of 1˜2 days, washed with PBS solution and incubated with a mixture of enzyme solution (0.2% collagenase and 0.1% dispase) at 37° C. gentle shaker. This procedure was sequentially repeated (10, 10, 10, 20, 20 and 20 mins), and then the calvaria cells having the characteristics of osteoblast mostly released from III-VI digestion groups were collected and washed with the medium (serum-free α-MEM). The washed cells were cultivated in α-MEM medium containing 10% FBS for 2˜3 days. After subculturing, these cells were used for this experiment, and diluted to reach the concentration of 1×10^6 cell/mL for storage at −70° C.
Benzamidine derivatives of the present invention were dissolved in a sterile distilled water or ethanol to make desired concentrations following dilution. The final volume of specimen added to the medium was determined at the ratio of 1:1000.
Bone marrow cells prepared, in the above and osteoblast from calvaria were co-cultured for osteoclast differentiation. Both bone marrow cells (25,000 cells/cm^2) and osteoblast (10,000 cells/cm^2) were plated on a 96 well plate in α-MEM medium containing FBS with specimen, and then cultured with test materials for 7 days. Differentiation factors, such as dexamethasone (10^−7M) and vitamin D3 (10^−8M), were also continuously added to the medium from the first day of cultivation. The medium was changed with fresh media containing a mixture of specimens and differentiation factors every 2˜3 day.
TRAP was used as a marker to measure osteoclast in consideration of its characteristics showing a positive reaction to TRAP staining solution. TRAP staining solution was prepared in a manner that 5 mg of naphtol AS-MS phosphate (sigma N-4875), a substrate and 25 mg of coloring agent (Fast Red Violet LB salt) were dissolved in N,N-dimethylformamide (about 0.5 mL), 0.1N NaHCO3 buffer solution (50 mL) containing 50 mM tartaric acid was added, and the reaction mixture was stored at refrigerator prior to use.
After culturing the cells for 7 days, the medium was removed from the wells, the cells were once washed with PBS solution and fixed to PBS containing 10% formalin for 2˜5 mins. The cells were fixed again in a mixed solution of ethanol and acetone (1/1) for about 1 min, and dried off. The cells were further treated by TRAP staining solution for 15 mins and washed with PBS. The experimental results were measured by counting the number of osteoclasts with 3 or more nuclei showing TRAP-positive reaction under a microscopic examination. Each of tests was confirmed over three times for gaining more reliable data.
As shown in the following table 7, the inhibitory effect of each experimental group on the differentiation of osteoclast versus controls was expressed by inhibitory percentage value.

[1] = 1 m, co-culture of bone marrow cells and osteoblast, 7 days, TRAP-positive osteoclasts versus controls

Structure (SMILES): CCCN1CCC(c2nc(-c3ccc(OCCCCCOc4ccc(C(=N)NO)cc4)cc3)c(C)s2)CC1 [Example 72, N-hydroxy-4-(5-[4-(5-methyl-2-(1-propyl-piperidin-4-yl)-1,3-thiazol-4-yl)phenoxy]pentoxy)-benzamidine]
- inhibition at 1 µM: 67.9%

Structure (SMILES): CC(C)c1sc(CN)nc1-c1ccc(OCCCCCOc2ccc(C(=N)NO)cc2)cc1 [Example 73, N-hydroxy-4-(5-[4-(5-isopropyl-2-aminomethyl-1,3-thiazol-4-yl)phenoxy]pentoxy)-benzamidine]
- inhibition at 1 µM [1]: 54.2%

Structure (SMILES): C=Cc1sc(C)nc1-c1ccc(OCCCCCOc2ccc(C(=N)NO)cc2)cc1 [Example 74, N-hydroxy-4-(5-[4-(5-vinyl-2-methyl-1,3-thiazol-4-yl)phenoxy]pentoxy)-benzamidine]
- inhibition at 1 µM [1]: 92.6%

Structure (SMILES): Cc1nc(-c2ccc(OCCCCCOc3ccc(C(=N)NO)cc3)cc2)c(CO)s1 [Example 75, N-hydroxy-4-(5-[4-(5-hydroxymethyl-2-methyl-1,3-thiazol-4-yl)phenoxy]pentoxy)-benzamidine]
- inhibition at 1 µM [1]: 40.2%

Structure (SMILES): COCc1sc(C)nc1-c1ccc(OCCCCCOc2ccc(C(=N)NO)cc2)cc1 [Example 76, N-hydroxy-4-(5-[4-(5-methoxymethyl-2-methyl-1,3-thiazol-4-yl)phenoxy]pentoxy)-benzamidine]
- inhibition at 1 µM [1]: 99%

Structure (SMILES): N=C(NO)c1ccc(OCCCCCOc2ccc(-c3nc(N)sc3CCCl)cc2)cc1 [Example 77, N-hydroxy-4-(5-[4-(5-(2-chloroethyl)-2-amino-1,3-thiazol-4-yl)phenoxy]pentoxy)-benzamidine]
- inhibition at 1 µM [1]: 83.3%

Structure (SMILES): C=Cc1sc(N)nc1-c1ccc(OCCCCCOc2ccc(C(=N)NO)cc2)cc1 [Example 78, N-hydroxy-4-(5-[4-(5-vinyl-2-amino-1,3-thiazol-4-yl)phenoxy]pentoxy)-benzamidine]
- inhibition at 1 µM [1]: 97.5%

Structure (SMILES): C=Cc1sc(-c2cccnc2)nc1-c1ccc(OCCCCCOc2ccc(C(=N)NO)cc2)cc1 [Example 79, N-hydroxy-4-(5-[4-(5-vinyl-2-(pyridin-3-yl)-1,3-thiazol-4-yl)phenoxy]pentoxy)-benzamidine]
- inhibition at 1 µM [1]: 96.4%

Structure (SMILES): N=C(NO)c1ccc(OCCCCCOc2ccc(-c3nc(-c4cccnc4)sc3CCCl)cc2)cc1 [Example 80, N-hydroxy-4-(5-[4-(5-(2-chloroethyl)-2-(pyridin-3-yl)-1,3-thiazol-4-yl)phenoxy]pentoxy)-benzamidine]
- inhibition at 1 µM [1]: 96.4%

Structure (SMILES): N=C(NO)c1ccc(OCCCCCOc2ccc(-c3nc(N)sc3C3CCCC3)cc2)cc1 [Example 81, N-hydroxy-4-(5-[4-(2-amino-5-cyclopentyl-1,3-thiazol-4-yl)phenoxy]pentoxy)-benzamidine]
- inhibition at 1 µM [1]: 29.5%

Structure (SMILES): CCc1sc(CN)nc1-c1ccc(OCCCCCOc2ccc(C(=N)NO)cc2)cc1 [Example 82, N-hydroxy-4-(5-[4-(5-ethyl-2-aminomethyl-1,3-thiazol-4-yl)phenoxy]pentoxy)-benzamidine]
- inhibition at 1 µM [1]: 8.9%

Structure (SMILES): CC(C)c1sc(C2CCCNC2)nc1-c1ccc(OCCCCCOc2ccc(C(=N)NO)cc2)cc1 (centres unmarked) [Example 83, N-hydroxy-4-(5-[4-(5-isopropyl-2-(piperidin-3-yl)-1,3-thiazol-4-yl)phenoxy]pentoxy)-benzamidine]
- inhibition at 1 µM: 23.8%

Structure (SMILES): CCNc1nc(-c2ccc(OCCCCCOc3ccc(C(=N)NO)cc3)cc2)cs1 [Example 84, N-hydroxy-4-(5-[4-(2-ethylamino-1,3-thiazol-4-yl)phenoxy]pentoxy)-benzamidine]
- inhibition at 1 µM [1]: 100%

Structure (SMILES): CCS(=O)(=O)Nc1nc(-c2ccc(OCCCCCOc3ccc(C(=N)NO)cc3)cc2)cs1 [Example 85, N-hydroxy-4-(5-[4-(2-ethanesulfonylamino-1,3-thiazol-4-yl)phenoxy]pentoxy)-benzamidine]
- inhibition at 1 µM [1]: 5.3%

Structure (SMILES): N=C(NO)c1ccc(OCCCCCOc2ccc(-c3nc(NC(=O)c4cccnc4)sc3CC3CCCC3)cc2)cc1 [Example 89, N-hydroxy-4-(5-[4-(5-cyclopentylmethyl-2-(3-pyridylcarbonyl)amino-1,3-thiazol-4-yl)phenoxy]pentoxy)-benzamidine]
- inhibition at 1 µM [1]: 81.2%

Structure (SMILES): Cc1sc(NC(=O)CO)nc1-c1ccc(OCCCCCOc2ccc(C(=N)NO)cc2)cc1 [Example 90, N-hydroxy-4-(5-[4-(2-hydroxyacetylamino-5-methyl-1,3-thiazol-4-yl)phenoxy]pentoxy)-benzamidine]
- inhibition at 1 µM [1]: 61.9%

Structure (SMILES): Cc1sc(NC(=O)c2cccnc2)nc1-c1ccc(OCCCCCOc2ccc(C(=N)NO)cc2)cc1 [Example 92, N-hydroxy-4-(5-[4-(5-methyl-2-(3-pyridylcarbonyl)amino-1,3-thiazol-4-yl)phenoxy]pentoxy)-benzamidine]
- inhibition at 1 µM [1]: 49%

Structure (SMILES): COCCNc1nc(-c2ccc(OCCCCCOc3ccc(C(=N)NO)cc3)cc2)c(C)s1 [Example 94, N-hydroxy-4-(5-(4-(2-(2-methoxyethyl)amino-5-methyl-1,3-thiazol-4-yl)phenoxy]pentoxy)-benzamidine]
- inhibition at 1 µM [1]: 77.2%

Structure (SMILES): CCc1sc(NS(=O)(=O)CC)nc1-c1ccc(OCCCCCOc2ccc(C(=N)NO)cc2)cc1 [Example 95, N-hydroxy-4-(5-[4-(2-ethanesulfonylamino-5-ethyl-1,3-thiazol-4-yl)phenoxy]pentoxy)-benzamidine]
- inhibition at 1 µM [1]: 47.1%

Structure (SMILES): CCNc1nc(-c2ccc(OCCCCCOc3ccc(C(=N)NO)cc3)cc2)c(CC)s1 [Example 97, N-hydroxy-4-(5-[4-(5-ethyl-2-ethylamino-1,3-thiazol-4-yl)phenoxy]pentoxy)-benzamidine]
- inhibition at 1 µM [1]: 42.6%

Structure (SMILES): CCc1sc(NC(=O)c2cccnc2)nc1-c1ccc(OCCCCCOc2ccc(C(=N)NO)cc2)cc1 [Example 101, N-hydroxy-4-(5-[4-(5-ethyl-2-(3-pyridylcarbonyl)amino-1,3-thiazol-4-yl)phenoxy]pentoxy)-benzamidine]
- inhibition at 1 µM [1]: 43.7%

Structure (SMILES): CCc1sc(NCCOC)nc1-c1ccc(OCCCCCOc2ccc(C(=N)NO)cc2)cc1 [Example 102, N-hydroxy-4-(5-[4-(5-ethyl-2-(2-methoxyethyl)amino-1,3-thiazol-4-yl)phenoxy]pentoxy)-benzamidine]
- inhibition at 1 µM [1]: 96.4%

Structure (SMILES): CNc1nc(-c2ccc(OCCCCCOc3ccc(C(=N)NO)cc3)cc2)c(C(C)C)s1 [Example 103, N-hydroxy-4-(5-[4-(5-isopropyl-2-methylamino-1,3-thiazol-4-yl)phenoxy]pentoxy)-benzamidine]
- inhibition at 1 µM [1]: 25.4%

Structure (SMILES): CCNc1nc(-c2ccc(OCCCCCOc3ccc(C(=N)NO)cc3)cc2)c(C(C)C)s1 [Example 104, N-hydroxy-4-(5-[4-(2-ethylamino-5-isopropyl-1,3-thiazol-4-yl)phenoxy]pentoxy)-benzamidine]
- inhibition at 1 µM [1]: 40%

Structure (SMILES): CCCCc1sc(NC)nc1-c1ccc(OCCCCCOc2ccc(C(=N)NO)cc2)cc1 [Example 105, N-hydroxy-4-(5-[4-(5-butyl-2-methylamino-1,3-thiazol-4-yl)phenoxy]pentoxy)-benzamidine]
- inhibition at 1 µM [1]: 61.1%

Structure (SMILES): CCCCc1sc(NCC)nc1-c1ccc(OCCCCCOc2ccc(C(=N)NO)cc2)cc1 [Example 106, N-hydroxy-4-(5-[4-(5-butyl-2-ethylamino-1,3-thiazol-4-yl)phenoxy]pentoxy)-benzamidine]
- inhibition at 1 µM [1]: 0%

Structure (SMILES): CCNc1nc(-c2ccc(OCCCCCOc3ccc(C(=N)NO)cc3)cc2)c(Cc2ccccc2)s1 [Example 108, N-hydroxy-4-(5-[4-(5-benzyl-2-ethylamino-1,3-thiazol-4-yl)phenoxy]pentoxy)-benzamidine]
- inhibition at 1 µM [1]: 25.4%

Structure (SMILES): CCCNc1nc(-c2ccc(OCCCCCOc3ccc(C(=N)NO)cc3)cc2)c(C2CCCC2)s1 [Example 113, N-hydroxy-4-(5-[4-(5-cyclopentyl-2-propylamino-1,3-thiazol-4-yl)phenoxy]pentoxy)-benzamidine]
- inhibition at 1 µM [1]: 86.7%

Structure (SMILES): CC(C)c1sc(NCc2cccnc2)nc1-c1ccc(OCCCCCOc2ccc(C(=N)NO)cc2)cc1 [Example 114, N-hydroxy-4-(5-[4-(5-isopropyl-2-[(pyridin-3-yl-methyl)amino]-1,3-thiazol-4-yl)phenoxy]pentoxy)-benzamidine]
- inhibition at 1 µM [1]: 50.9%
